Like-named read-outs stand apart in the source and are kept apart here.
Key:
[1] = system: HEP-G2 cells; test: cells; conditions: for HEP-G2 Tox: human, 3 h
Experimental: Assay (I): Glucose utilisation in a human hepatocytes cell line (HEP-G2 cells)
The assay measures indirectly the activity of the respiratory chain in HEP-G2 cells by using D-(3-^3H(N))-glucose. The ^3H-proton will first be released during the metabolism of glucose where it will be incorporated into water. The water is thereafter separated from the D-(3-^3H(N))-glucose by evaporation. Finally, the radioactivity in the water is determined using a Topcounter.
HEP-G2 cells obtained from ATCC (Maryland, USA), are cultured in assay medium (MEM medium) with the following addition 1× non-essential amino acids (M7145, 2 mM glutamine, 100 units/ml penicillin and streptomycin, 0.0075% sodium bicarbonate, 1 mM sodium pyrovate and 0.5% BSA (Bovin Serum Albumin, Sigma Missouri, USA)) at 37° C. and 5% CO2. All media are obtained by Gibco (Life Technologies, Maryland, USA) where not otherwise mentioned.
At day zero the cells are harvested using trypsin-EDTA and washed in assay medium using centrifugation. […] The cells are then incubated at 37° C. and 5% CO2 overnight.
(§1) The next day the compounds to be tested are diluted in DMSO (Sigma, Missouri, USA) to 100 times final concentration. They are then diluted to a final concentration in assay medium containing 10 μCi/ml D-(3-^3H(N))-glucose (PerkinElmer Life Sciences Inc., Boston, USA). The medium is removed from the cells and 200 μl of the compound dilutions are added in duplicates. The cells are then incubated for another 3 hours at 37° C. and 5% CO2. Finally the cells are lysed by adding 50 μl 10% TCA (trichloroacetic acid). 300 μl of sterile water is then added to the 24-wells that surrounds the StripPlate wells. The plate is sealed with Top-seal-tape (Packard, PerkinElmer Life Sciences Inc., Boston, USA) and the plate is incubated in a heating cupboard at 50° C. to equilibrium the radioactive water formed in the respiratory chain into the water in the 24-well plate by evaporate. The plates incubate for 8 hours where the heating cupboard is turned off. The top seal is removed when the samples have reached room temperature. One ml scintillation liquid (Packard Microscient, PerkinElmer Life Sciences Inc., Boston, USA) is added to all the samples and the radioactivity is determined using a Topcounter (Packard, PerkinElmer Life Sciences Inc., Boston, USA). Non-specific activity is determined by evaporating 200 μl of the dilution medium containing the D-(3-^3H(N))-glucose into 300 μl sterile water, and total radioactivity is determined by counting 5 μl assay medium with 10 μCi/ml D-(3-^3H(N))-glucose.
The cpm (counts per minute) representing the non-specific radioactivity in the D-(3-^3H(N))-glucose is subtracted from all incubated values. Then mean basal value (samples without any compound added) is subtracted from the values of all stimulated samples (samples added different concentrations of the different test compounds). All these calculations are done using GraphPad Prism 3.0 (GraphPad software, Inc.). The maximal stimulation caused by the test compounds is calculated in percentage of maximal stimulation caused by either DNP or FCCP.
When calculating the concentration-response curve the maximal glucose utilisation stimulated by FCCP or DNP (subtracted non-specific and basal values) is converted to 100% and all the other values are expressed in percentage of this value. Using these percentage values and the compound concentration a concentration-response curve is calculated using sigmoidal dose-response (variable slope) equation (all the calculations are done by GraphPad Prism 3.0 (GraphPad software, Inc.));
Y=Bottom+(Top−Bottom)/(1+10^((LogEC50-X)*slope))
(§2) X is the logarithm of the molar concentration of the test compound.
Y is the degree of stimulation caused by the compound measured as a percentage of the maximal stimulation achieved by use of FCCP or DNP.
The results achieved with these concentrations are used to determine the slope in this area using the following equation: […]

[2] = system: FSK-4 cells; test: Assay (IV): Glucose utilisation in FSK-4 cells; assay type: cell-based; conditions: FSK-4 cells; for EC50: glucose utilisation, 24 hours incubation, read-out: FSK4 EC50; for Emax: maximal efficacy relative to FCCP, read-out: FSK4 Emax (% of FCCP)
Experimental: Assay (IV): Glucose Utilisation in FSK-4 Cells
The assay measures indirectly the activity of the respiratory chain in FSK-4 cells by using D-(6-^3H(N))-glucose. The ^3H-proton will first be released in the TCA cyclus and transported to the respiratory chain where it will be incorporated into water. The water is thereafter separated from the D-(6-^3H(N))-glucose by evaporation. Finally, the radioactivity in the water is determined using a Topcounter.
FSK-4 cells obtained from ATCC (Maryland, USA), are cultured in growth medium (McCoy's medium with the following addition 100 units/ml penicillin and streptomycin and 10% FCS (fetal calf serum)) at 37° C. and 5% CO2. All media are obtained by Gibco (Life Technologies, Maryland, USA) where not otherwise mentioned.
At day zero the cells are harvested using trypsin-EDTA and washed in assay medium (MEM medium with the following addition 1× non-essential amino acids (M7145, 2 mM glutamin, 100 units/ml pencillin and streptomycin, 0.0075% sodium bicarbonate, 1 mM sodium pyrovate and 2% horse serum) using centrifugation. The cells are plated into single StripPlates wells (Corning B.V.Life Sciences, The Netherlands) that are placed into 24-well plates (Corning B.V.Life Sciences, The Netherlands) with a concentration of 1,5×10^4 cells/100 μl assay medium/well. The cells are then incubated at 37° C. and 5% CO2 overnight.
as §1, with “are diluted to different concentrations in DMSO” for “are diluted in DMSO”, “10 μCi/ml D-(6-^3H(N))-glucose (PerkinElmer Life” for “10 μCi/ml D-(3-^3H(N))-glucose (PerkinElmer Life”, “for another 24 hours at” for “for another 3 hours at”, “10% TCA (tri-chloroacetatic acid). 300” for “10% TCA (trichloroacetic acid). 300”, “containing the D-(6-^3H(N))-glucose into 300” for “containing the D-(3-^3H(N))-glucose into 300”, “10 μCi/ml D-(6-^3H(N))-glucose.” for “10 μCi/ml D-(3-^3H(N))-glucose.”
All calculations are done using GraphPad Prism 3.0 (GraphPad software, Inc.) From concentration-response curves the half maximal concentration (EC50) and maximal efficacy (Emax) are calculated using equation 1.
Y=Bottom+(Top−Bottom)/(1+10^((LogEc50-X)*slope))
as §2
Y is the degree of stimulation caused by the compound measured as percentage of the basal stimulation.
The calculated EC50 value is then used to determine the concentrations used in a study where the Hill slope is calculated.
From the double logarithmic plot of the increase in glucose utilisation and the compound concentration the Hill slope is calculated accordingly to equation 2.
It is presumed, that the maximal increase in the glucose utilisation (as measured in the FSK-4 glucose utilisation assay) is limited by the capacity of the metabolism.

[3] = Homo sapiens, HepG2, 3 h, read-out: HEP-G2 EC50, HEP-G2 cells, glucose utilisation, 3 hours incubation
[4] = Homo sapiens, HepG2, read-out: HEP-G2 Emax (% of FCCP), HEP-G2 cells, maximal stimulation relative to FCCP
[5] = Homo sapiens, HepG2, read-out: HEP-G2 Emax (μM), HEP-G2 cells, concentration at which Emax is achieved (CEmax)

Row | SMILES | EC50 [1, 3] | Emax [1, 4] | EC (Emax) [1, 5] | EC50 [2] | Emax [2] | HEP-G2 Tox [1] | EC50 ([1]; Homo sapiens, HepG2, 3 h, read-out: HEP-G2 EC50) | Emax ([1]; Homo sapiens, HepG2, read-out: HEP-G2 Emax (% of FCCP)) | EC (Emax) ([1]; Homo sapiens, HepG2, read-out: HEP-G2 Emax (μM)) | EC50 ([1]; read-out: HEP-G2 EC50, HEP-G2 cells, glucose utilisation, 3 hours incubation)
1 | Cc1ccc(C(C)(C)C)c(O)c1C(=O)Nc1ccc([N+](=O)[O-])cc1Cl [Example 10] | 370 nM | 100% | 3 µM | 300 nM | 80% | – | – | – | – | –
2 | CC(C)(C)c1cc(C[P+](c2ccccc2)(c2ccccc2)c2ccccc2)cc(C(C)(C)C)c1O [Example 11, (3,5-Di-Tert-Butyl-4-Hydroxybenzyl)Triphenylphosphonium Bromide] | 700 nM | 75% | 3 µM | 300 nM | 90% | Tox 0.03 mM | – | – | – | –
3 | CC(C)(C)c1cc(C[P+](C2CCCCC2)(C2CCCCC2)C2CCCCC2)cc(C(C)(C)C)c1O [Example 12, (3,5-Di-Tert-Butyl-4-Hydroxybenzyl)Tricyclohexylphosphonium Bromide] | 1200 nM | 70% | 10 µM | 300 nM | 85% | Tox 0.03 mM | – | – | – | –
4 | CCCC[P+](CCCC)(CCCC)Cc1cc(C(C)(C)C)c(O)c(C(C)(C)C)c1.[Br-] [Example 13, (3,5-Di-Tert-Butyl-4-Hydroxybenzyl)Tributylphosphonium Bromide] | 2900 nM | 70% | 10 µM | 1000 nM | 85% | Tox 0.03 mM | – | – | – | –
5 | CCCCCCCC[P+](CCCCCCCC)(CCCCCCCC)Cc1cc(C(C)(C)C)c(O)c(C(C)(C)C)c1.[Br-] [Example 14, (3,5-Di-Tert-Butyl-4-Hydroxybenzyl)Trioctylphosphonium Bromide] | 1100 nM | 100% | 10 µM | 200 nM | 100% | Tox 0.01 mM | – | – | – | –
6 | CCOC(=O)/C(C#N)=C/c1cc(C(C)(C)C)c(O)c(C(C)(C)C)c1 [Example 15, 2-Cyano-3-(3,5-Di-Tert-Butyl-4-Hydroxyphenyl)-Acrylic Acid Ethyl Ester] | 700 nM | 100% | 3 µM | 2000 nM | 65% | – | – | – | – | –
7 | CCOC(=O)C(=Cc1cc(C(C)(C)C)c(O)c(C(C)(C)C)c1)C(=O)OCC [Example 16, 2-(3,5-Di-Tert-Butyl-4-Hydroxy-Benzylidene)-Malonic Acid Diethyl Ester] | 11000 nM | 100% | 100 µM | 30000 nM | 45% | – | – | – | – | –
8 | CC(C)(C)c1cc(C=C2C(=O)c3ccccc3C2=O)cc(C(C)(C)C)c1O [Example 18, 2-(3,5-Di-Tert-Butyl-4-Hydroxy-Benzylidene)-Indan-1,3-Dione] | 600 nM | 80% | 3 µM | 6000 nM | 100% | – | – | – | – | –
9 | N#CC(C#N)=Cc1c(-c2ccc(Cl)cc2)[nH]c2ccccc12 [Example 19, 2-[[2-(4-Chlorophenyl)-1H-Indol-3-Yl]Methylene]Malononitrile] | 7000 nM | 100% | 100 µM | 1100 nM | 55% | – | – | – | – | –
10 | Clc1ccc(-c2cc3ccccc3[nH]2)cc1 [Example 20, 2-(4-Chlorophenyl)-Indole] | 50000 nM | 55% | 300 µM | 26000 nM | 90% | – | – | – | – | –
11 | Cc1c(Cl)cc(C(C)(C)C)c(O)c1C(=O)Nc1ccc(Cl)c(C(F)(F)F)c1 [Example 42, 3-Tert-Butyl-5-Chloro-N-(4-Chloro-3-Trifluoromethyl-Phenyl)-2-Hydroxy-6-Methyl-Benzamide] | 3300 nM | 89% | 10 µM | 1100 nM | 75% | – | – | – | – | –
12 | Cc1c(Cl)cc(C(C)(C)C)c(O)c1C(=O)Nc1ccc(C#N)c(C(F)(F)F)c1 [Example 43, 3-Tert-Butyl-5-Chloro-N-(4-Cyano-3-Trifluoromethyl-Phenyl)-2-Hydroxy-6-Methyl-Benzamide] | – | – | – | 300 nM | 80% | – | 850 nM | 95% | 3 µM | –
13 | O=C(Nc1ccc([N+](=O)[O-])cc1Cl)c1cccc(-c2ccccc2)c1O [Example 44, 2-Hydroxy-Biphenyl-3-Carboxylic Acid (2-Chloro-4-Nitro-Phenyl)-Amide] | 2000 nM | 94% | – | 3600 nM | 90% | – | – | – | – | 1400 nM
